Source: patent US10253002B2, “Compounds and methods of treating infections” (Neoculi Pty Ltd., priority 2013, dated 2019)
In brackets after ≈: the same amount, converted by molar mass. Several values for one entry are separate records, joined by “and”; a condition that tells them apart may be missing. Equal entries are not always repeated. Where two headings read alike, the source gives them in different places.

Tests used:
Assay type in all cases: cell-based
Streptococcus pneumoniae = experiment: Broth microdilution MIC (CLSI) in 4% LHB-CAMHB, Example 1
Description: The powder was dissolved in 10 mL DMSO and 1 mL volumes were aliquoted into eppendorf tubes and stored at -80° C. […] Serial dilutions were prepared in 96 well plates were set up in a safety cabinet according to methods standard in the art. Briefly: 90 μL of the working antibiotic solution was added to each well in Column 12 of the plate, and mixed well, before 90 μL was transferred to column 11. The solutions were mixed again, and then transferred to the next column as before, continuing the dilutions through to column 3. Mixing the well requires the pick up and expulsion of 90 μL in each well 3-4 times before picking up and transferring the 90 μL to the next well. […] The bacterial solution was placed into a sterile trough and 10 μL of bacterial solution added into wells 2 through to 12 on each required row (dilution of 1:10, with final concentration of bacteria in wells=5×10^5 CFU/mL). The tray was sealed and incubated at 37° C. for 18-24 h. The purity of bacterial suspension was confirmed by streaking out 50 μL of the 1:20 dilution onto a SBA plate, which was incubated for 37° C. for 18 h and examined. Viable counts were carried out to ensure that the correct concentration of bacteria and been added to the wells. […] The following day the number of colonies on the plates was counted and the average count in 100 μL obtained. The study was multiplied by 10 to obtain a viable bacterial count per mL. Minimum inhibitory concentrations (μg/mL) were determined using the broth microdilution method recommended by the Clinical and Laboratory Standards Institute (CLSI) (Methods for Dilution Antimicrobial Susceptibility Tests for Bacteria That Grow Aerobically; Approved Standard-Seventh Edition. CLSI M7-A7, 2006; Performance Standards for Antimicrobial Disk and Dilution Susceptibility Tests for Bacteria Isolated from Animals; Approved Standard-Second Edition. CLSI […]-A2, 2002; Performance Standards for Antimicrobial Susceptibility Testing; CLSI M2-A9, 2006). […] Bacterial growth (turbidity) in the wells with antimicrobial was compared with the amount of growth (turbidity) in the growth-control well (containing no antimicrobial). All isolates were tested in duplicate, if there was a difference of greater than one two-fold dilution in the results, the test was repeated a third time. The purity of the isolates was closely monitored during testing by subculturing the prepared bacterial inoculum onto SBA. Control organisms (Enterococcus faecalis strain ATCC 29212, S. aureus strain ATCC 29213 and S. pneumoniae strain ATCC 49619) were used throughout the testing to monitor quality control. […] The MIC50, MIC90 and MIC range (minimum and maximum) were calculated for each of the bacterial groups.

Salmonella arizonae = experiment: Broth microdilution MIC, Example 7
Description: Minimum inhibitory concentrations (μg/ml) were determined using the broth microdilution method recommended by the Clinical and Laboratory Standards Institute (CLSI). […] Bacterial growth (turbidity) in the wells with antimicrobial was compared with the amount of growth (turbidity) in the growth-control well (containing no antimicrobial). All isolates were tested in duplicate, if there was a difference of greater than one two-fold dilution in the results, the test was repeated a third time. The purity of the isolates was closely monitored during testing by subculturing the prepared bacterial inoculum onto SBA (sheep blood agar). The MICs of the control strains for the antimicrobial ampicillin were determined for each testing run as an internal quality control. The MIC50, […] and MIC range (minimum and maximum) were calculated for each of the bacterial groups.

[1] = tested on: Staphylococcus aureus T3-129 / Staphylococcus spp. MK1; experiment: Synergy studies, checkerboard method (FIC index)
[2] = Streptococcus pneumoniae, Strep. pneumoniae 3, Test 2, read-out: MIC
[3] = Streptococcus pneumoniae, Strep. pneumoniae 16, Test 1, read-out: MIC
[4] = Streptococcus pneumoniae, Strep. pneumoniae 16, Test 2, read-out: MIC

SMILES: CC1(C)S[C@@H]2[C@H](NC(=O)[C@H](N)c3ccccc3)C(=O)N2[C@H]1C(=O)O [Ampicillin]
- MIC90 (Streptococcus pneumoniae; Str. pneumoniae, 20 isolates): 0.25 µg/mL (≈ 0.715 µM)
- MIC90 (Streptococcus pneumoniae; Streptococcus pneumoniae isolates of Table 5, Test 1, read-out: MIC90): 0.25 µg/mL (≈ 0.715 µM)
- MIC90 (Streptococcus pneumoniae; Streptococcus pneumoniae isolates of Table 5, Test 2): 0.25 µg/mL (≈ 0.715 µM)
- MIC (Streptococcus pneumoniae; Streptococcus pneumoniae, ATCC49619, S. pneumoniae strain ATCC 49619, read-out: MIC of control strain (internal quality control)): 0.06 µg/mL
- MIC (Streptococcus pneumoniae; Streptococcus pneumoniae, ATCC49619, Strep. pneumoniae ATCC 49619, Test 1, read-out: MIC): < 0.25 µg/mL
- MIC (Streptococcus pneumoniae; Streptococcus pneumoniae, ATCC49619, Strep. pneumoniae ATCC 49619, Test 2, read-out: MIC): < 0.25 µg/mL
- MIC (Streptococcus pneumoniae; Streptococcus pneumoniae, Strep. pneumoniae 1, Test 1, read-out: MIC): < 0.25 µg/mL
- MIC (Streptococcus pneumoniae; Streptococcus pneumoniae, Strep. pneumoniae 1, Test 2, read-out: MIC): < 0.26 µg/mL
- MIC (Streptococcus pneumoniae; Streptococcus pneumoniae, Strep. pneumoniae 2, Test 1, read-out: MIC): < 0.26 µg/mL
- MIC (Streptococcus pneumoniae; Streptococcus pneumoniae, Strep. pneumoniae 2, Test 2, read-out: MIC): < 0.25 µg/mL
- MIC (Streptococcus pneumoniae; Streptococcus pneumoniae, Strep. pneumoniae 3, Test 1, read-out: MIC): < 0.25 µg/mL
- MIC (Streptococcus pneumoniae; [2]): < 0.25 µg/mL
- MIC (Streptococcus pneumoniae; Streptococcus pneumoniae, Strep. pneumoniae 4, Test 1, read-out: MIC): < 0.25 µg/mL
- MIC (Streptococcus pneumoniae; Streptococcus pneumoniae, Strep. pneumoniae 4, Test 2, read-out: MIC): < 0.25 µg/mL
- MIC (Streptococcus pneumoniae; Streptococcus pneumoniae, Strep. pneumoniae 5, Test 1, read-out: MIC): < 0.25 µg/mL
- MIC (Streptococcus pneumoniae; Streptococcus pneumoniae, Strep. pneumoniae 5, Test 2, read-out: MIC): < 0.26 µg/mL
- MIC (Streptococcus pneumoniae; Streptococcus pneumoniae, Strep. pneumoniae 6, Test 1, read-out: MIC): < 0.26 µg/mL
- MIC (Streptococcus pneumoniae; Streptococcus pneumoniae, Strep. pneumoniae 6, Test 2, read-out: MIC): < 0.25 µg/mL
- MIC (Streptococcus pneumoniae; Streptococcus pneumoniae, Strep. pneumoniae 7, Test 1, read-out: MIC): < 0.25 µg/mL
- MIC (Streptococcus pneumoniae; Streptococcus pneumoniae, Strep. pneumoniae 7, Test 2, read-out: MIC): < 0.26 µg/mL
- MIC (Streptococcus pneumoniae; Streptococcus pneumoniae, Strep. pneumoniae 8, Test 1, read-out: MIC): < 0.25 µg/mL
- MIC (Streptococcus pneumoniae; Streptococcus pneumoniae, Strep. pneumoniae 8, Test 2, read-out: MIC): < 0.25 µg/mL
- MIC (Streptococcus pneumoniae; Streptococcus pneumoniae, Strep. pneumoniae 9, Test 1, read-out: MIC): < 0.26 µg/mL
- MIC (Streptococcus pneumoniae; Streptococcus pneumoniae, Strep. pneumoniae 9, Test 2, read-out: MIC): < 0.25 µg/mL
- MIC (Streptococcus pneumoniae; Streptococcus pneumoniae, Strep. pneumoniae 10, Test 1, read-out: MIC): < 0.06 µg/mL
- MIC (Streptococcus pneumoniae; Streptococcus pneumoniae, Strep. pneumoniae 10, Test 2, read-out: MIC): < 0.06 µg/mL
- MIC (Streptococcus pneumoniae; Streptococcus pneumoniae, Strep. pneumoniae 12, Test 1, read-out: MIC): < 0.06 µg/mL
- MIC (Streptococcus pneumoniae; Streptococcus pneumoniae, Strep. pneumoniae 12, Test 2, read-out: MIC): < 0.06 µg/mL
- MIC (Streptococcus pneumoniae; Streptococcus pneumoniae, Strep. pneumoniae 13, Test 1, read-out: MIC): < 0.06 µg/mL
- MIC (Streptococcus pneumoniae; Streptococcus pneumoniae, Strep. pneumoniae 13, Test 2, read-out: MIC): < 0.06 µg/mL
- MIC (Streptococcus pneumoniae; Streptococcus pneumoniae, Strep. pneumoniae 14, Test 1, read-out: MIC): < 0.06 µg/mL
- MIC (Streptococcus pneumoniae; Streptococcus pneumoniae, Strep. pneumoniae 14, Test 2, read-out: MIC): < 0.06 µg/mL
- MIC (Streptococcus pneumoniae; Streptococcus pneumoniae, Strep. pneumoniae 15, Test 1, read-out: MIC): 0.25 µg/mL (≈ 0.715 µM)
- MIC (Streptococcus pneumoniae; Streptococcus pneumoniae, Strep. pneumoniae 15, Test 2, read-out: MIC): 0.25 µg/mL (≈ 0.715 µM)
- MIC (Streptococcus pneumoniae; [3]): 2 µg/mL (≈ 5.72 µM)
- MIC (Streptococcus pneumoniae; [4]): 2 µg/mL (≈ 5.72 µM)
- MIC (Streptococcus pneumoniae; Streptococcus pneumoniae, Strep. pneumoniae 18, Test 1, read-out: MIC): 0.25 µg/mL (≈ 0.715 µM)
- MIC (Streptococcus pneumoniae; Streptococcus pneumoniae, Strep. pneumoniae 18, Test 2, read-out: MIC): 0.25 µg/mL (≈ 0.715 µM)
- MIC (Streptococcus pneumoniae; Streptococcus pneumoniae, Strep. pneumoniae 19, Test 1, read-out: MIC): 0.25 µg/mL (≈ 0.715 µM)
- MIC (Streptococcus pneumoniae; Streptococcus pneumoniae, Strep. pneumoniae 19, Test 2, read-out: MIC): 0.25 µg/mL (≈ 0.715 µM)
- MIC (Streptococcus pneumoniae; Streptococcus pneumoniae, Strep. pneumoniae 20, Test 1, read-out: MIC): 2 µg/mL (≈ 5.72 µM)
- MIC (Streptococcus pneumoniae; Streptococcus pneumoniae, Strep. pneumoniae 20, Test 2, read-out: MIC): 2 µg/mL (≈ 5.72 µM)
- MIC50 (Streptococcus pneumoniae; Streptococcus pneumoniae, Str. pneumoniae, 20 isolates): < 0.25 µg/mL
- MIC (Streptococcus pneumoniae; Streptococcus pneumoniae, Str. pneumoniae, 20 isolates, read-out: MIC mode): < 0.25 µg/mL
- MIC (Salmonella arizonae; S. arizonae, 2nd): 1 µg/mL (≈ 2.86 µM)
- MIC (Salmonella arizonae; Salmonella enterica, S. arizonae, 1st, read-out: MIC): 1 µg/mL (≈ 2.86 µM)
- FICI ([1]; S. aureus strain T3-29, FIC index of antibiotic with NCL812): 0.75 and 0.53
- FIC1 ([1]; S. aureus strain T3-29, MIC of antibiotic in combination with NCL812/MIC of antibiotic alone): 0.5
- Result (interaction with NCL812) ([1]; S. aureus strain T3-29, antibiotic with NCL812): NE (No effect (NE) was defined as 0.5<FICI<4)

SMILES: N=C(N/N=C/c1ccc(Cl)cc1)N/N=C/c1ccc(Cl)cc1 [NCL812, 1,3-bis[(E)-(4-chlorophenyl)methyleneamino]guanidine]
- MIC (Streptococcus pneumoniae; [2]): 2 µg/mL (≈ 5.98 µM)
- MIC (Streptococcus pneumoniae; [3]): 0.5 µg/mL (≈ 1.5 µM)
- MIC (Streptococcus pneumoniae; [4]): 1 µg/mL (≈ 2.99 µM)
- MIC (Salmonella arizonae; S. arizonae, 1st): >128 µg/mL
- MIC (Salmonella arizonae; S. arizonae, 2nd): >128 µg/mL
- MIC (Salmonella arizonae; Salmonella enterica, Salmonella arizonae, read-out: MIC): > 128 µg/mL
- FIC2 ([1]; MIC of NCL812 in combination with Chloramphenicol/MIC of NCL812 alone, S. aureus strain T3-29): 0.25 and 0.5
- FIC2 ([1]; MIC of NCL812 in combination with Erythromycin/MIC of NCL812 alone, S. aureus strain T3-29): 0.5 and 0.25
- FIC2 ([1]; MIC of NCL812 in combination with Penicillin G/MIC of NCL812 alone, Staphylococcus spp. Strain MK1): 0.5
- FIC2 ([1]; MIC of NCL812 in combination with Sulfamethoxazole/MIC of NCL812 alone, Staphylococcus spp. Strain MK1): 0.25 and 0.5
- NCL812 MIC Alone ([1]; Staphylococcus spp. Strain MK1, NCL812 alone): 2 µg/mL
- NCL812 MIC With Antibiotic ([1]; with Erythromycin, S. aureus strain T3-29): 2 µg/mL
- NCL812 MIC With Antibiotic ([1]; with Penicillin G, Staphylococcus spp. Strain MK1): 2 µg/mL
- NCL812 MIC With Antibiotic ([1]; with Sulfamethoxazole, Staphylococcus spp. Strain MK1): 1 µg/mL and 2 µg/mL
